ChEMBL document CHEMBL1132909 (Bioorg Med Chem Lett, 2000)

The compounds below were run against Neuraminidase (Influenza A virus (A/Puerto Rico/8/1934(H1N1)), UniProt P03468) (assay: Inhibition of neuraminidase in Influenza A).
Format: functional

Neuraminidase (Influenza A virus (A/Puerto Rico/8/1934(H1N1)), UniProt P03468), sequence (P03468 whole entry): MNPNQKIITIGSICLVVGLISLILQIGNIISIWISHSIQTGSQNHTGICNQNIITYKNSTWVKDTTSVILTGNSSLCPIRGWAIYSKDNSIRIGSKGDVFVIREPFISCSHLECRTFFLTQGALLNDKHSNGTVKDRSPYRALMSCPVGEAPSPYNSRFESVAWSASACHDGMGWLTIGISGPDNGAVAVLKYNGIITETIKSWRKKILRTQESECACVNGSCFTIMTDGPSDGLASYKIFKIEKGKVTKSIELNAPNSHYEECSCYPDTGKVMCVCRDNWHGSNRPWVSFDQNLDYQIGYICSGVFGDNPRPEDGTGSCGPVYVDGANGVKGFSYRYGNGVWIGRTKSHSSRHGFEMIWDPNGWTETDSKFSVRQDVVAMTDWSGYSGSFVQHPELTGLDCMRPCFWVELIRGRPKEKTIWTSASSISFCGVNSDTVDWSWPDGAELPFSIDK

In order of falling IC50:
1. CC(=O)N[C@H]1[C@H](N2CCN(C)CC2)C=C(C(=O)O)C[C@@H]1N  1.9 µM
2. CC(=O)N[C@H]1[C@H](N2CCC2)C=C(C(=O)O)C[C@@H]1N  1 µM
3. CC(=O)N[C@H]1[C@H](N2CCCC2)C=C(C(=O)O)C[C@@H]1N  0.31 µM
4. CCC1(CC)CN([C@@H]2C=C(C(=O)O)C[C@H](N)[C@H]2NC(C)=O)C1  0.265 µM
5. CC(=O)N[C@H]1[C@H](N2CCOCC2)C=C(C(=O)O)C[C@@H]1N  0.26 µM
6. CC(=O)N[C@H]1[C@H](N2CCCCCCCC2)C=C(C(=O)O)C[C@@H]1N  0.075 µM
7. CCC1CCN([C@@H]2C=C(C(=O)O)C[C@H](N)[C@H]2NC(C)=O)CC1  0.052 µM
8. CC(=O)N[C@H]1[C@H](N2CCC(C)CC2)C=C(C(=O)O)C[C@@H]1N  0.051 µM
9. CCCC1CCN([C@@H]2C=C(C(=O)O)C[C@H](N)[C@H]2NC(C)=O)CC1  0.04 µM
10. CC(=O)N[C@H]1[C@H](N2CCCCCC2)C=C(C(=O)O)C[C@@H]1N  0.035 µM
11. CC(=O)N[C@H]1[C@H](N2C3CCCC2CC3)C=C(C(=O)O)C[C@@H]1N  0.032 µM
12. CC(=O)N[C@H]1[C@H](N2CCCCCCC2)C=C(C(=O)O)C[C@@H]1N  0.026 µM
13. CC(=O)N[C@H]1[C@H](N2CCCCC2)C=C(C(=O)O)C[C@@H]1N  0.025 µM
14. CC(=O)N[C@H]1[C@H](N2CCCCC[C@@H]2CO)C=C(C(=O)O)C[C@@H]1N  0.008 µM
